As usually defined, the IC50 is the point on the concentration scale where inhibition reaches its midpoint. Read a low IC50 as higher potency.

Experimental findings from US10947199B2, “Spiro and cyclic bis-benzylidene proteasome inhibitor for the treatment of cancer, diabetes and neurological disorders” (UP THERAPEUTICS, INC., priority 2017, dated 2021) are described below.

The structures appear in SMILES notation. “Also recorded” adds a separate entry of the source.

For one data set, the system named is IkB-a in HeLa cells. Briefly: IkB-a stabilization in HeLa cells with TNF-a. Type of data set: cell-based. To be noted: in the presence of TNF-a. From the text: NFκB is constitutively activated in many cancers including high grade cervical intraepithelial neoplasia (CIN) and cervical cancer.
Data set [1] has as its system human ovarian cancer ES2 xenograft (ES2-Lu). The experiment in a line: ES2-Lu ovarian cancer xenograft, intraperitoneal. It is filed as in vivo. To be noted: nude female mice, 10 mg/Kg on alternate days for two weeks. How it is done: To test the efficacy of Up109 to treat the human ovarian cancer ES2 xenograft model, the luciferase-expressing ES2 cells (ES2-Lu) were inoculated into peritoneal cavity of nude female mice (i.e. orthotopically). Two days after inoculation the mice were imaged for their basal luminescence activity and then randomized into two groups (n=10). First group was treated with the vehicle and the second group was treated with Up109 (10 mg/Kg) on alternate days for two weeks. Mice were imaged after the first and second week of treatment for their luciferase activity. […] Tumor burden in the vehicle group mice was excessive and sacrificed at the end of the treatment (FIG. 10).

The test system of a further data set is MDA-MB-231. Briefly: MTT cell viability assay, MDA-MB-231. Type of data set: cell-based. The conditions noted are these: MDA-MB-231, Triple Negative Breast Cancer, 24 or 48 or 72 hours. How it is done: (§1) Briefly cancer cells incubated with Up compounds for the period of 24 or 48 or 72 hours and the cell viability was measured using MTT assay. IC50 of compounds listed in Table1.

The next data set relates to OVCAR5. Briefly: MTT cell viability assay, OVCAR5. It is filed as cell-based. To be noted: OVCAR5, Ovarian Cancer, 24 or 48 or 72 hours. On the procedure:
as §1

In a further data set the test system is PC-3. The experiment in a line: MTT cell viability assay, PC-3. Type of data set: cell-based. To be noted: PC-3, Prostate Cancer, 24 or 48 or 72 hours. How it is done: as §1
A further data set relates to LNCaP. Briefly: MTT cell viability assay, LNCaP. It is filed as cell-based. The conditions noted are these: Prostate Cancer, 24 or 48 or 72 hours. On the procedure: as §1
For orientation: Tetrazolium assays rely on reduction of a dye to a coloured formazan, in cell work by metabolically active cells.

The subject of the next data set is HS578T. Briefly: MTT cell viability assay, HS578T. The conditions noted are these: Triple Negative Breast Cancer, 24 or 48 or 72 hours. Type of data set: cell-based. How it is done: as §1
Data set [2] deals with proteasome (4UbFL reporter) in muscle cells. The experiment in a line: 4UbFL reporter in muscle of live mice, IVIS imaging. It is filed as in vivo. To be noted: Balb/c mice, i.p. 40 mg/Kg; imaged 4 h, 24 h and 48 h post treatment. On the procedure: To test for proteasome inhibition by Up109 in vivo, muscle cells of live Balb/c mice transduced with the 4UbFL reporter DNA construct by electroporation. After i.p. injection of luciferin, the enzymic activity of luciferase in the transfected muscle tissue was visualized as bioluminescence using an IVIS imager. At two days post electroporation of the 4UbFL DNA, mice were imaged and base line luminescence recorded. The control group (n=5) of mice was treated i.p. with vehicle alone and another group (n=5) treated i.p with Up109 (40 mg/Kg). After 4 h, 24 h and 48 h post treatment mice were again imaged and luminescence was quantified (FIG. 9).

Data set [3] concerns proteasome function (4Ub-FL reporter) in 293TT cells. The experiment in a line: 4Ub-FL reporter assay of proteasome function in live cells. It is filed as cell-based. The conditions noted are these: 293TT cells expressing 4Ub-FL. From the text: To measure proteasome function in live cells, we utilized an engineered ubiquitin-firefly (4Ub-FL) reporter in which four copies of mutant ubiquitin (ubiquitin G76V) gene are fused to the N-terminus of the firefly luciferase (FL) gene. The results of this experiment, shown in FIG. 1, reveal that the 4Ub-FL reporter protein is rapidly degraded by the proteasome.
To measure proteasome function in live cells, we utilized an engineered ubiquitin-firefly (4Ub-FL) reporter in which four copies of mutant ubiquitin (ubiquitin G76V) gene are fused to the N-terminus of the firefly luciferase (FL) gene. The 4Ub-FL reporter protein is rapidly degraded by the proteasome (FIG. 6). […] Treatment of Up109 produced a greater increase in the 4Ub-FL bioluminescence in a dose dependent manner.

For a further data set, the system named is HepG2. Briefly: MTT cell viability assay, HepG2. Type of data set: cell-based. To be noted: HepG2, Liver Cancer, 24 or 48 or 72 hours. On the procedure:
as §1

Regarding `C=CC(=O)N1CCC2(CC1)C(=Cc1ccc([N+](=O)[O-])cc1)C(=O)C2=Cc1ccc([N+](=O)[O-])cc1` [Up109], in the data set on IkB-a in HeLa cells, the “stabilization of IkB-a” value was “Stabilization of IkB-a was observed”. The “weight loss and observable side effects” value in [1] was “no weight loss and any observable side effects”. In data set [1] (ES2-Lu i.p.), the “tumor burden compared to the vehicle” value was “significantly reduced the tumor burden”. For the same compound, the IC50 was 38 nM with MDA-MB-231; 19 nM in the data set on OVCAR5; 57 nM in the data set on PC-3; 65 nM with LNCaP; 17 nM in the data set on HS578T; 118 nM with HepG2. Further, the “4UbFL reporter stabilization in vivo (bioluminescence)” value in [2] is listed as “Stabilized”. In addition, the “increase in 4Ub-FL bioluminescence compared to before treatment” value in [3] was “thirteen-fold increase”. Also, the “4Ub-FL reporter stabilization / bioluminescence increase (qualitative)” value in [3] (dose dependent) was “greater increase in the 4Ub-FL bioluminescence than RA190; also recorded: stabilization and an increase in luciferase activity”.
